# Measured values from paper PMC10178848, “Modulating fast skeletal muscle contraction protects skeletal muscle in animal models of Duchenne muscular dystrophy” (The Journal of Clinical Investigation, 2023).
# Like-named read-outs stand apart in the source and are kept apart here.
# What was measured:
# [1] = target: T1, CSNK1D (Homo sapiens, UniProt P48730); assay: KINOMEscan scanEDGE; format: binding; details: 20 uM
# T1 construct: purchased Eurofins DiscoverX (KINOMEscan; SAFETYscan E/IC50 ELECT)
# [2] = target: T2, AURKB (Homo sapiens, UniProt Q96GD4); assay: KINOMEscan scanEDGE; format: binding; details: 20 uM
# T2 construct: purchased Eurofins DiscoverX (KINOMEscan; SAFETYscan E/IC50 ELECT)
# [3] = target: T3, SRC (Homo sapiens, UniProt P12931); assay: KINOMEscan scanEDGE; format: binding; details: 20 uM
# T3 construct: purchased Eurofins DiscoverX (KINOMEscan; SAFETYscan E/IC50 ELECT)
# [4] = target: T4, CHRM2 (Homo sapiens, UniProt P08172); assay: SAFETYscan cAMP; format: cell-based; set-up: dose or concentration left out as unconfirmed
# T4 construct: purchased Eurofins DiscoverX (KINOMEscan; SAFETYscan E/IC50 ELECT)
# T4 sequence (P08172 whole entry): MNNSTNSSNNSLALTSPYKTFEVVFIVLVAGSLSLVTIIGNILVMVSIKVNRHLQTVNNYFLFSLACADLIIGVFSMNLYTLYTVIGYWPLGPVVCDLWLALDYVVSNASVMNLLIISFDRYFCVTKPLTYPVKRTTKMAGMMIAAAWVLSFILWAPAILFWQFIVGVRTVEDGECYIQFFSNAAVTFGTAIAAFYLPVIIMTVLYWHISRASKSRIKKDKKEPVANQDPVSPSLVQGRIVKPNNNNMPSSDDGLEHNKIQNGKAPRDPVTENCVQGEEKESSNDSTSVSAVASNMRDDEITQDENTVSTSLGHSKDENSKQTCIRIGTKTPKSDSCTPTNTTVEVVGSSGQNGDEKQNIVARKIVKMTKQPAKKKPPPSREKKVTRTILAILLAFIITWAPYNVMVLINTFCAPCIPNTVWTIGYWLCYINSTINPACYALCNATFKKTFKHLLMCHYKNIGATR
# Method: (§1) The specificity of EDG-5506 for fast skeletal myosin over other, unrelated proteins was confirmed using two off-target binding and activity screens. […] A second off-target panel (SAFETYscan E/IC50 ELECT, Eurofins DiscoverX) tested in vitro enzyme activity against 78 proteins, including GPCR, ion channel, kinases, nuclear hormone receptors, and transporters. In all assays, the IC50 of EDG-5506 was more than 10 μM (Supplemental Data File 1).
# [5] = target: T5, HRH2 (Homo sapiens, UniProt P25021); assay: SAFETYscan cAMP; format: cell-based; set-up: dose or concentration left out as unconfirmed
# T5 construct: purchased Eurofins DiscoverX (KINOMEscan; SAFETYscan E/IC50 ELECT)
# T5 sequence (P25021 whole entry): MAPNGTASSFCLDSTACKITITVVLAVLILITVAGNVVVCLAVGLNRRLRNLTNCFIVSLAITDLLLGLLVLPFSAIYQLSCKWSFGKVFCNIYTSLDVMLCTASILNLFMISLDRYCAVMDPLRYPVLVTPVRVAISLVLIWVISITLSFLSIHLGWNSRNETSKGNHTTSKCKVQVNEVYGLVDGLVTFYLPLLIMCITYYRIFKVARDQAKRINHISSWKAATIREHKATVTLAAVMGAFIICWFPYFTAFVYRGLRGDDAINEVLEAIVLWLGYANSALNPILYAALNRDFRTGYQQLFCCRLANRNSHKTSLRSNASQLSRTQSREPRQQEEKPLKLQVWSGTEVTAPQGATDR
# Method: as §1
# [6] = target: T6, CNR2 (Homo sapiens, UniProt P34972); assay: SAFETYscan cAMP; format: cell-based; set-up: dose or concentration left out as unconfirmed
# T6 construct: purchased Eurofins DiscoverX (KINOMEscan; SAFETYscan E/IC50 ELECT)
# T6 sequence (P34972 whole entry): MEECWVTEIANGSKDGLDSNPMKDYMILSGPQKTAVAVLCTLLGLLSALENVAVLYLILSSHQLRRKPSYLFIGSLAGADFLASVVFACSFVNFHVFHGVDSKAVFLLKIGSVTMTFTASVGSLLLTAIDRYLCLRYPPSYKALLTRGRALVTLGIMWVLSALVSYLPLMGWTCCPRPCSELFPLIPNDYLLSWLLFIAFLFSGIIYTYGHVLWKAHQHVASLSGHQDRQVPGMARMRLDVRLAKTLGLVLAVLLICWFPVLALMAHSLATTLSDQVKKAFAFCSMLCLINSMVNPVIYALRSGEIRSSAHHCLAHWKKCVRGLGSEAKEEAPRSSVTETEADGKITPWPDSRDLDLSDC
# Method: as §1
# [7] = target: T7, CNR1 (Homo sapiens, UniProt P21554); assay: SAFETYscan cAMP; format: cell-based; set-up: dose or concentration left out as unconfirmed
# T7 construct: purchased Eurofins DiscoverX (KINOMEscan; SAFETYscan E/IC50 ELECT)
# T7 sequence (P21554 whole entry): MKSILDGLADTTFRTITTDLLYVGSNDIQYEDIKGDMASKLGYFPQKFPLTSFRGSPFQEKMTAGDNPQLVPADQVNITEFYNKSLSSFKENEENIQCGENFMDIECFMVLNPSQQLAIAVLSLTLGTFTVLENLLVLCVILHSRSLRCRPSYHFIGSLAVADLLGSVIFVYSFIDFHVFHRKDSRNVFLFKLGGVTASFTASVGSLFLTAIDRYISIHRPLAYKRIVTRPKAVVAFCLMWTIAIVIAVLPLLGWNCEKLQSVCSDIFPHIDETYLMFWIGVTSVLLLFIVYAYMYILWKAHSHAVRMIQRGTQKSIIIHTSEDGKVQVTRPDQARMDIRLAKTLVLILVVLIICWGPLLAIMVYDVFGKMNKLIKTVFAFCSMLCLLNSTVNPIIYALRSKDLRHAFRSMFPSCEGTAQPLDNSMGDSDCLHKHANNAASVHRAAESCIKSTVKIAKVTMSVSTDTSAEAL
# Method: as §1
# [8] = target: T8, HTR1A (Homo sapiens, UniProt P08908); assay: SAFETYscan cAMP; format: cell-based; set-up: dose or concentration left out as unconfirmed
# T8 construct: purchased Eurofins DiscoverX (KINOMEscan; SAFETYscan E/IC50 ELECT)
# T8 sequence (P08908 whole entry): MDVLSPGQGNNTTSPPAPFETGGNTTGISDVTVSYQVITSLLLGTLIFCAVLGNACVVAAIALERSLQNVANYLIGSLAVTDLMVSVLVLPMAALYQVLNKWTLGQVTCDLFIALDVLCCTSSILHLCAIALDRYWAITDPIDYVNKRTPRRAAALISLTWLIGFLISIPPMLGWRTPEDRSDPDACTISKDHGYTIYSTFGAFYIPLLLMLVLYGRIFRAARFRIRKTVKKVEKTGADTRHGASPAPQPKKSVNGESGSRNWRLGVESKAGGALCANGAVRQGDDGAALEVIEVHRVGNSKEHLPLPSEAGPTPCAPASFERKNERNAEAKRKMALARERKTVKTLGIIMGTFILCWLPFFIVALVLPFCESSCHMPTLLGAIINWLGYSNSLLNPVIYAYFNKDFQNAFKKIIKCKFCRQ
# Method: as §1
# [9] = target: T9, DRD2S (Homo sapiens, UniProt P14416); assay: SAFETYscan cAMP; format: cell-based; set-up: dose or concentration left out as unconfirmed
# T9 construct: purchased Eurofins DiscoverX (KINOMEscan; SAFETYscan E/IC50 ELECT)
# T9 sequence (P14416 1-414 isoform P14416-2): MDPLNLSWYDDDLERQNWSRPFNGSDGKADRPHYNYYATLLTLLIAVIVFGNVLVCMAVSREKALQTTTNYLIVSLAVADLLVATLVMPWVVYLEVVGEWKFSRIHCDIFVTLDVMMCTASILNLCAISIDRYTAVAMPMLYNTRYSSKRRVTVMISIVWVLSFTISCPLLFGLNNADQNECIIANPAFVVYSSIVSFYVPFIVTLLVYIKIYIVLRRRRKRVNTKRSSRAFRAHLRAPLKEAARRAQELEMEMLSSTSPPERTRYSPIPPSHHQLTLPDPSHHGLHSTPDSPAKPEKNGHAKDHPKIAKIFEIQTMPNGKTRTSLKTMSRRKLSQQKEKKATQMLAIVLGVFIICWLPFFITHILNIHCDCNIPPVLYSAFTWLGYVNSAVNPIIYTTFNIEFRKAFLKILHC
# Method: as §1
# [10] = target: T10, DRD1 (Homo sapiens, UniProt P21728); assay: SAFETYscan cAMP; format: cell-based; set-up: dose or concentration left out as unconfirmed
# T10 construct: purchased Eurofins DiscoverX (KINOMEscan; SAFETYscan E/IC50 ELECT)
# T10 sequence (P21728 whole entry): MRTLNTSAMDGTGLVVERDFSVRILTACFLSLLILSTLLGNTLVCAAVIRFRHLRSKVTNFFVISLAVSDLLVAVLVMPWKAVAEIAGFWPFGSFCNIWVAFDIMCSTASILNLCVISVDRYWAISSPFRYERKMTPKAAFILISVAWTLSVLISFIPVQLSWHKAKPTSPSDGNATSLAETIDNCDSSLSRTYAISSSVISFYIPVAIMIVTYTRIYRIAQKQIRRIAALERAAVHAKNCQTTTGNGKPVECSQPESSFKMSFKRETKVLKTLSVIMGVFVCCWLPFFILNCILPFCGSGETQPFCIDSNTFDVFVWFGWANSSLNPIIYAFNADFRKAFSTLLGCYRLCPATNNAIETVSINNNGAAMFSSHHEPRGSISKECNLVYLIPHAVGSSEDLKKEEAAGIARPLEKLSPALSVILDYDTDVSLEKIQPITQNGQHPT
# Method: as §1
# [11] = target: T11, HTR1B (Homo sapiens, UniProt P28222); assay: SAFETYscan cAMP; format: cell-based; set-up: dose or concentration left out as unconfirmed
# T11 construct: purchased Eurofins DiscoverX (KINOMEscan; SAFETYscan E/IC50 ELECT)
# T11 sequence (P28222 whole entry): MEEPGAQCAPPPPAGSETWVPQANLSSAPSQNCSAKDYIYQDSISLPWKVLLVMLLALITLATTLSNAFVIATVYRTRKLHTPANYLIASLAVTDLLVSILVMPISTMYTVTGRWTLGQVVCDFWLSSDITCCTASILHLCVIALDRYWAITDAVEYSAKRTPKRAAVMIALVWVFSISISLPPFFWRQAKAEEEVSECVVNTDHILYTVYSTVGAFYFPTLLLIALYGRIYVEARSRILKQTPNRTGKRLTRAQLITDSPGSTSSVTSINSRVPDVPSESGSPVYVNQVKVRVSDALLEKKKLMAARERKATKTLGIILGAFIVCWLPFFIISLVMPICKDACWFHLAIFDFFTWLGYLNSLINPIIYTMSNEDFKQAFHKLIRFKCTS
# Method: as §1
# [12] = target: T12, ADRB1 (Homo sapiens, UniProt P08588); assay: SAFETYscan cAMP; format: cell-based; set-up: dose or concentration left out as unconfirmed
# T12 construct: purchased Eurofins DiscoverX (KINOMEscan; SAFETYscan E/IC50 ELECT)
# T12 sequence (P08588 whole entry): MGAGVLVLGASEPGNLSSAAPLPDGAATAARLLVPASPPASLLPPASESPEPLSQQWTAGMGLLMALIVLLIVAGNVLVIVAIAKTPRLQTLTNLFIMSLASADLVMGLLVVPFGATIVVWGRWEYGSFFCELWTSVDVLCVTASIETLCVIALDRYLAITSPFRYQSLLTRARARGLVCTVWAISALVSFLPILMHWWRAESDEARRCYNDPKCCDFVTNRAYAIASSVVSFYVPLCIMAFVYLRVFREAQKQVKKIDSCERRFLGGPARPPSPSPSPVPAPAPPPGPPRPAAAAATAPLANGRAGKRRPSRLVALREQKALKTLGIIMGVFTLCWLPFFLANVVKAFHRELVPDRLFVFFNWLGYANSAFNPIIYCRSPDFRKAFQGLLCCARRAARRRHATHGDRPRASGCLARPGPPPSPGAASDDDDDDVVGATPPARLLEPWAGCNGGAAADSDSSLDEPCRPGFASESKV
# Method: as §1
# [13] = target: T13, PDGFRA (Homo sapiens, UniProt P16234); assay: KINOMEscan scanEDGE; format: binding; details: 20 uM
# T13 construct: purchased Eurofins DiscoverX (KINOMEscan; SAFETYscan E/IC50 ELECT)
# [14] = system: mdx EDL muscle; assay: Procion orange dye uptake after eccentric contraction; set-up: species or system mouse
# Method: For procion imaging, injury protocols were performed in 1% procion MX Dye (020 Brilliant Orange, Jacquard Products) and fixed in cold 4% paraformaldehyde and then cold 30% sucrose/PBS before cryosection. Laminin immunohistochemistry used rabbit polyclonal (L9393, Sigma-Aldrich, 1:20) and chicken anti-rabbit Alexa Fluor 488 (Invitrogen, 1:500). Slides were scanned at ×20 with Nikon Te-2000 dark-field microscopy and analyzed with Imaris software (Bitplane AG). Imaris’ surface component algorithm was used to detect procion-labeled fiber boundaries. Nonspecific procion staining of the peripheral tendon and outer layer of cells (where handling could cause injury) was excluded by applying a size and location filter (>2× average fiber size and located adjacent to laminin-positive fibers at the edge of the muscle). Each fiber was identified with an ID and color coded before calculation.
# [15] = target: T14, EGFR(L858R) (Homo sapiens, UniProt P00533, L858R); assay: KINOMEscan scanEDGE; format: binding; details: 20 uM
# T14 construct: purchased Eurofins DiscoverX (KINOMEscan; SAFETYscan E/IC50 ELECT)
# [16] = target: T15, IKK-alpha (Homo sapiens, UniProt O15111); assay: KINOMEscan scanEDGE; format: binding; details: 20 uM
# T15 construct: purchased Eurofins DiscoverX (KINOMEscan; SAFETYscan E/IC50 ELECT)
# T15 sequence (O15111 whole entry): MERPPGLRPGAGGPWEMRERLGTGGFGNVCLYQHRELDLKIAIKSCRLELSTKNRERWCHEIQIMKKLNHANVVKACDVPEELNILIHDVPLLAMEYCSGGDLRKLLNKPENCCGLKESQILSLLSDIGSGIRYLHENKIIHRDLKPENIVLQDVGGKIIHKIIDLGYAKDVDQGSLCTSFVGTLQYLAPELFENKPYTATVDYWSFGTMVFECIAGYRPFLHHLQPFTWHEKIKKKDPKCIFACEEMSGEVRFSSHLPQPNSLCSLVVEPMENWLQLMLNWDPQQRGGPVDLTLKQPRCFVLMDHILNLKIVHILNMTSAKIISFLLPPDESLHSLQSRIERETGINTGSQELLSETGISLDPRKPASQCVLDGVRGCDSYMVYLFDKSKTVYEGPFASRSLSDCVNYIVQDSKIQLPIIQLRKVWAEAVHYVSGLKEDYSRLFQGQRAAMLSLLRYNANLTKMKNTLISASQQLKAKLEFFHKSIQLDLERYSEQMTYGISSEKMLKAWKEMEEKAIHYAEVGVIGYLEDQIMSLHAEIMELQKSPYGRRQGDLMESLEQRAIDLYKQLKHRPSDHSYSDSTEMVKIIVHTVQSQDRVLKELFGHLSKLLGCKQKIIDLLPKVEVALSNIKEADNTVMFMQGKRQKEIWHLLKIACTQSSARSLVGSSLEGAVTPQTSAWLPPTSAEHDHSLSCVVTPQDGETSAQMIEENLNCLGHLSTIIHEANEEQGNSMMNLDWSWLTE
# [17] = target: T16, MEK1 (Homo sapiens, UniProt Q02750); assay: KINOMEscan scanEDGE; format: binding; details: 20 uM
# T16 construct: purchased Eurofins DiscoverX (KINOMEscan; SAFETYscan E/IC50 ELECT)
# T16 sequence (Q02750 whole entry): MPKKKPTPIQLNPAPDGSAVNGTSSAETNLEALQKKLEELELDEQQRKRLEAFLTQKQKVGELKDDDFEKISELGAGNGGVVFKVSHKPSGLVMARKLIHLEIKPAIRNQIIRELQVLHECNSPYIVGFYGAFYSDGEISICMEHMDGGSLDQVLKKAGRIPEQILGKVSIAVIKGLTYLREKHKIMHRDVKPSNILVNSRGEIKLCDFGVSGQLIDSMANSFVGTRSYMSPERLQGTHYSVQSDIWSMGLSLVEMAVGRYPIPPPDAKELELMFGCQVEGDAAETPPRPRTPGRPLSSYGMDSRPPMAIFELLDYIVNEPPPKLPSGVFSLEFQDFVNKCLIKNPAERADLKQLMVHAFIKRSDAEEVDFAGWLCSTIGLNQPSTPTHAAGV
# [18] = system: dystrophic golden retriever (GRMD) dogs; assay: Plasma CK activity in GRMD dogs; format: in vivo, dog; details: 7-month-old GRMD, 14 days oral gavage
# Method: Plasma from mice and dogs were analyzed for CK activity using standard protocols (Pointe Scientific, Thermo Fisher Scientific).
# Studies were performed in two phases. In the first phase, GRMD (n = 4, female, 7 months old) were dosed PO daily with vehicle for 2 weeks, followed by a suspension of EDG-5506 (3 mg/kg daily for 2 days, then 1 mg/kg daily for 2 weeks) and then with vehicle for 2 weeks. Blood was drawn at regular intervals (2–3 draws during the vehicle baseline, 5–8 draws during the dosing period, and 2 draws during the vehicle washout). In a separate dosing period, the same 4 dogs (10 months old) were administered vehicle for 14 days with regular blood draws (6–9 for each dog across the 14-day period). CK activity (Pointe Scientific, Thermo Fisher Scientific) was measured from plasma. In the second phase, the same 4 dogs (15 months old) were fitted with a collar-bound activity monitor (Fitbark 2, Fitbark Inc.) as described previously ([42]), and baseline activity was recorded for 27 days before daily oral gavage with vehicle for 22 days. Three dogs were then dosed in a similar pattern to phase 1 with EDG-5506 (2 mg/kg for 4 days and then 2 mg/kg every other day for 7 days). The fourth dog was dosed with vehicle over the same period. […] Average daily activity (“Fitbark points”) and time performing various activities (play, rest, active) were recorded.
# [19] = target: T17, p38-alpha (Homo sapiens, UniProt Q16539); assay: KINOMEscan scanEDGE; format: binding; details: 20 uM
# T17 construct: purchased Eurofins DiscoverX (KINOMEscan; SAFETYscan E/IC50 ELECT)
# [20] = system: dystrophic golden retriever (GRMD) dogs; assay: Habitual activity in GRMD dogs (FitBark); format: in vivo, dog; details: 2 mg/kg daily for 4 days, then every other day
# Method: Studies were performed in two phases. In the first phase, GRMD (n = 4, female, 7 months old) were dosed PO daily with vehicle for 2 weeks, followed by a suspension of EDG-5506 (3 mg/kg daily for 2 days, then 1 mg/kg daily for 2 weeks) and then with vehicle for 2 weeks. Blood was drawn at regular intervals (2–3 draws during the vehicle baseline, 5–8 draws during the dosing period, and 2 draws during the vehicle washout). In a separate dosing period, the same 4 dogs (10 months old) were administered vehicle for 14 days with regular blood draws (6–9 for each dog across the 14-day period). CK activity (Pointe Scientific, Thermo Fisher Scientific) was measured from plasma. In the second phase, the same 4 dogs (15 months old) were fitted with a collar-bound activity monitor (Fitbark 2, Fitbark Inc.) as described previously ([42]), and baseline activity was recorded for 27 days before daily oral gavage with vehicle for 22 days. Three dogs were then dosed in a similar pattern to phase 1 with EDG-5506 (2 mg/kg for 4 days and then 2 mg/kg every other day for 7 days). The fourth dog was dosed with vehicle over the same period. Dogs were then returned to vehicle for a further 12 days. Average daily activity (“Fitbark points”) and time performing various activities (play, rest, active) were recorded.
# [21] = target: T18, PRKCE (Homo sapiens, UniProt Q02156); assay: KINOMEscan scanEDGE; format: binding; details: 20 uM
# T18 construct: purchased Eurofins DiscoverX (KINOMEscan; SAFETYscan E/IC50 ELECT)
# [22] = target: T19, BRAF(V600E) (Homo sapiens, UniProt P15056, V600E); assay: KINOMEscan scanEDGE; format: binding; details: 20 uM
# T19 construct: purchased Eurofins DiscoverX (KINOMEscan; SAFETYscan E/IC50 ELECT)
# [23] = target: T20, KIT(D816V) (Homo sapiens, UniProt P10721, D816V); assay: KINOMEscan scanEDGE; format: binding; details: 20 uM
# T20 construct: purchased Eurofins DiscoverX (KINOMEscan; SAFETYscan E/IC50 ELECT)
# [24] = target: T21, CDK7 (Homo sapiens, UniProt P50613); assay: KINOMEscan scanEDGE; format: binding; details: 20 uM
# T21 construct: purchased Eurofins DiscoverX (KINOMEscan; SAFETYscan E/IC50 ELECT)
# [25] = read-out: Max Response (%) (Agonist)
# [26] = read-out: Max Response (%) (Antagonist)
smiles,measurement,setting,value
O=c1ccc(-c2cnc(OCC(F)(F)F)nc2)nn1Cc1cncc(F)c1 [EDG-5506],"binding, % of control",[1],94 % of control
same,"binding, % of control",[2],82 % of control
same,"binding, % of control",[3],100 % of control
same,Emax,[4]; [25],21.5%
same,Emax,[4]; [26],0%
same,Emax,[5]; [25],0%
same,Emax,[5]; [26],15%
same,Emax,[6]; [25],27.5%
same,Emax,[6]; [26],0%
same,Emax,[7]; [25],14.8%
same,Emax,[7]; [26],3.38%
same,Emax,[8]; [25],0%
same,Emax,[8]; [26],1.51%
same,Emax,[9]; [25],7.3%
same,Emax,[9]; [26],1.39%
same,Emax,[10]; [25],3.04%
same,Emax,[10]; [26],14.3%
same,Emax,[11]; [25],0%
same,Emax,[11]; [26],4.17%
same,Emax,[12]; [25],2.02%
same,Emax,[12]; [26],9.68%
same,"binding, % of control",[13],100 % of control
same,membrane-impermeable dye (procion orange) uptake,[14],effectively reduced dye uptake
same,"binding, % of control",[15],95 % of control
same,"binding, % of control",[16],93 % of control
same,"binding, % of control",[17],78 % of control
same,decrease in CK,[18],more than 50%
same,"binding, % of control",[19],100 % of control
same,improvement of average daily activity,[20],more than 30%
same,"binding, % of control",[21],81 % of control
same,"binding, % of control",[22],93 % of control
same,"binding, % of control",[23],87 % of control
same,"binding, % of control",[24],83 % of control
